Holding throughout (experiment): inhibition of tumour cell growth, NCI panel, 48 h
Assay [1] concerns HT29 colon.
Assay [2] deals with HOP-62 NSCLC.
Assay [3] relates to UO-31 renal.
Assay [4] deals with NCI-H522 lung.
Assay [5] has as its system M14 melanoma.
Assay [6] has as its system SF-539 CNS.
The test system of assay [7] is SK-MEL-5 melanoma.
The subject of assay [8] is EKVX NSCLC.
Assay [9] relates to MALME-3M melanoma.
The subject of assay [10] is SW-620 colon.

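Briefly, cells in 96-well plates were exposed to five compound concentrations for 48 h, and endpoints were estimated by linear interpolation. Here, GI50 denotes the concentration required for 50% inhibition of growth. TGI marks complete inhibition of growth.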 Some results are limits rather than exact numbers.

Consider `O=c1c2cc(F)ccc2sc2c(NCCCNCCO)nc3ccccc3c12`, for which the GI50 in assay [1] is 1.75 µM; in assay [2] it was 1.77 µM; in assay [3], 1.57 µM; in assay [4], 1.87 µM; in assay [5], 1.87 µM; in assay [6] it was 1.74 µM. Moreover, the GI50 in assay [7] was 1.76 µM; in assay [8], 1.67 µM; in [9], 1.61 µM; in [10], 1.62 µM. Moreover, the TGI is 3.43 µM in assay [1]; 3.69 µM in [2]; 2.96 µM in assay [3]; 3.8 µM in [4]; 3.62 µM in assay [5]; 3.19 µM in assay [6]. Also, the TGI is 3.2 µM in assay [7], 3.47 µM in assay [8], 3.09 µM in [9] and 3.14 µM in assay [10].
As for `Oc1cccc2c1NCCC2`, the GI50 in assay [1] is 5.19 µM; in [2] it was 0.146 µM; in [3] it was 0.075 µM; in assay [4], 0.0937 µM; in assay [5], 0.142 µM; in assay [6], 0.14 µM. The GI50 is 0.109 µM in assay [7], 1.78 µM in assay [8], 0.135 µM in assay [9] and 0.133 µM in assay [10]. Besides, the TGI in assay [1] was more than 100 µM; in [2], 42.5 µM; in assay [3], 13.5 µM; in [4], 1.75 µM; in assay [5] it was 15.6 µM; in [6] it was more than 47.3 µM. For the same compound, the TGI in assay [7] was 1.85 µM; in assay [8], more than 100 µM; in [9] it was 98.9 µM; in assay [10] it was more than 100 µM.
In the case of `COc1ccc(OC(=O)CC2Cc3cc(OC)c(OC)c(OC)c3-c3ccc(SC)c(=O)cc32)cc1` (stereo not given), the TGI in assay [1] is more than 100 µM; in assay [2], more than 39 µM; in assay [3], more than 100 µM; in assay [4], 0.527 µM; in assay [5] it was more than 100 µM; in assay [6], 0.54 µM. In addition, the TGI in assay [7] is 13 µM; in [8] it was more than 100 µM; in assay [9], more than 100 µM; in [10], more than 39.7 µM.
In the case of `COc1cc(-c2nn(-c3cccc(NC(=O)CCN4CCN(Cc5ccccc5)CC4)c3)cc2-c2ccncc2)ccc1Cl`, the GI50 in [1] is 0.314 µM; in assay [2], 1.38 µM; in assay [3], 0.887 µM; in [4], 0.359 µM; in [5], 0.696 µM; in assay [6] it was 1.14 µM. Moreover, the GI50 in [7] is 1.1 µM; in assay [8], 1.6 µM; in [9] it was 1.01 µM; in assay [10], 0.49 µM. The TGI in assay [1] is 1.55 µM; in assay [2], 12.4 µM; in assay [3] it was 6.56 µM; in assay [4] it was 1.75 µM; in assay [5], 2.21 µM; in assay [6] it was 2.58 µM. For the same compound, the TGI is 2.31 µM in assay [7], 17.5 µM in [8], 2.55 µM in [9] and 1.93 µM in [10].
For `Oc1cc(-n2cccn2)c(O)cc1-n1cccn1`, the TGI was 56.2 µM in assay [1]; more than 76.1 µM in assay [2]; 54.2 µM in assay [3]; 26.8 µM in assay [4]; 60.4 µM in assay [5]; more than 78.6 µM in [6]. Moreover, the TGI is 58 µM in [7], more than 83.3 µM in assay [8], more than 78.1 µM in [9] and 42.9 µM in assay [10].
For `CCOC(=O)/C(I)=C/c1cc(OC)c(OC)c(OC)c1`, the TGI in [1] was 15.1 µM; in assay [2], 96.1 µM; in assay [3] it was 19.1 µM; in assay [4], 12.9 µM; in assay [5], 14.7 µM; in [6], more than 100 µM. Further, the TGI in [7] came to 24.5 µM; in [8] it was 42.9 µM; in [9], 26.2 µM; in assay [10], 11.6 µM.
As for `CN1CCN(CCCCCN=c2cc3c(=O)n(CCCCCN4CCN(C)CC4)c(=O)c4c(NCCCCCN5CCN(C)CC5)cc5c(O)n(CCCCCN6CCN(C)CC6)c(=O)c2c5c4-3)CC1`, the GI50 was 1.45 µM in assay [1]; 2.45 µM in [2]; 75 µM in [3]; 1.46 µM in assay [4]; 35 µM in [5]; 2.64 µM in [6]. The GI50 in [7] is 14.1 µM; in assay [8], 2.93 µM; in assay [9], 2.55 µM; in assay [10], 3.31 µM. Moreover, the TGI in [1] is 5.31 µM; in [2], 12.2 µM; in assay [3], more than 100 µM; in assay [4], 3.93 µM; in assay [5], more than 100 µM; in assay [6] it was 8.32 µM. Further, the TGI worked out at 58.8 µM in [7], 17.2 µM in assay [8], 5.98 µM in assay [9] and 31.6 µM in assay [10].
In the case of `FC(F)(F)c1cccc(-c2nn3ncccc3c2-c2ccnc(Nc3ccc4c(c3)OCCO4)n2)c1`, the GI50 is 7.32 µM in [1]; more than 25 µM in assay [2]; 3.68 µM in assay [3]; 14 µM in assay [4]; 17.6 µM in [5]; more than 25 µM in assay [6]. The GI50 in [7] was 7.87 µM; in assay [8], 13.9 µM; in assay [9] it was more than 25 µM; in [10], 9.68 µM. For the same compound, the TGI in assay [1], in assay [2], in assay [3], in assay [4], in [5] and in [6] was more than 25 µM each time. The TGI in assay [7], in [8], in [9] and in assay [10] was more than 25 µM in each case.
As for `N[C@H](COCc1ccccc1)c1ccccc1`, the TGI in assay [1] is more than 93.9 µM; in [2] it was more than 74.5 µM; in [3] it was 87.4 µM; in assay [4] it was 39.1 µM; in assay [5] it was 66 µM; in assay [6], 75.1 µM. In addition, the TGI in assay [7] was 44.8 µM; in [8], more than 100 µM; in assay [9], more than 93.6 µM; in assay [10], more than 72.3 µM.
